Assay results reported in US5660976A, “Method for preserving a liver by perfusion with or storage in a solution containing ascorbyl tocopheryl phosphodiester” (Senju Pharmaceutical Co., Ltd., priority 1994, dated 1997).

Assay: Acute toxicity (LD50) in rats
Conditions: rat, in vivo
Description: The compound for use as the active ingredient in the hepatic graft preservative composition and hepatic graft preserving method of this invention is a very safe substance with an extremely low toxic potential and, as such, can be used with advantage for the purposes of this invention. [e.g. the LD50 values of L-ascorbyl DL-α-tocopheryl phosphate potassium (hereinafter referred to briefly as EPC-K)≥5 g/kg p.o. (rats) and≥100 mg/kg i.v. (rats)].

Cc1c(C)c2c(c(C)c1OP(=O)(O)OC1=C(O)[C@@H]([C@@H](O)CO)OC1=O)CCC(C)(CCCC(C)CCCC(C)CCCC(C)C)O2 (mixture of isomers) [EPC-K, L-Ascorbyl DL-α-tocopheryl phosphate potassium]
LD50 (iv, i.v. (rats)): ≥ 100 mg/kg | LD50 (po, p.o. (rats)): ≥ 5000 mg/kg
